Laboratory results: patent US7150967B2, “Fluorescent tags for amino acid and nucleic acid analysis” (University of Medicine & Dentistry of New Jersey, priority 2002, dated 2006)

Tests used:
[1] = biological target: bovine serum albumin (BSA) (Bos taurus, UniProt P02769); assay: Reaction with the thiol containing species bovine serum albumin, monitored by ultraviolet absorbance spectra; conditions: BSA 0.1 μg, 2.5 μmol compound, 30 minutes at 37° C.
Experimental: BSA (0.1 μg) was reacted with 2.5 μmol iodomercurio-H2DMP (IM-H2DMP) for 30 minutes at 37° C.

[2] = biological target: BSA (Bos taurus, UniProt P02769); assay: Detection of a protein on a 10% PAGE gel via formation of a fluorescent reaction product; design: species or system bovine; conditions: BSA 150 μg, 1.5 nmol compound, 30 minutes at 37° C.
Experimental: In these experiments, BSA (150 μg) was reacted with the mercurimethyl-dihydropsoralen 3-cyanomercurio-H2DMP (1.5 nmol) for 30 minutes at 37° C. The products were then run on a 10% PAGE gel to separate any reaction product from unreacted psoralen. The fluorescent BSA-mercurimethyl-dihydropsoralen reaction product was […].

Chain of bovine serum albumin (BSA) (P02769 25-607): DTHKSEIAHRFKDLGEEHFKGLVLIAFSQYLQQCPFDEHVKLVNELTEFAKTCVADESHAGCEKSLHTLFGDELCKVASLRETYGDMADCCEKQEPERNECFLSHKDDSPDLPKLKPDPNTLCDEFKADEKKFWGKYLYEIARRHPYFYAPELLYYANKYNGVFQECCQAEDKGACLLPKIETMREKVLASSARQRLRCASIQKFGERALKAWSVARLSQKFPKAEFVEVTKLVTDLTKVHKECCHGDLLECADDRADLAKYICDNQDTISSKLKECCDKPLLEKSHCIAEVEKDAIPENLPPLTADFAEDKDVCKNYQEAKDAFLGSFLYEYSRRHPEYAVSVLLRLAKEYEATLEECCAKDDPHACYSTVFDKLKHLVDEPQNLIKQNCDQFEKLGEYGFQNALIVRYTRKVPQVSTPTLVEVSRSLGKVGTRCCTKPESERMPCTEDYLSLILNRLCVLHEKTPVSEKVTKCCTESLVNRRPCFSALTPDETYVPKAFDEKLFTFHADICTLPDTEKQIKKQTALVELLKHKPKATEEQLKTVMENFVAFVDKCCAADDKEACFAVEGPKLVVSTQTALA

Row | SMILES | change in ultraviolet absorbance spectra (formation of new reaction product) [1] | ability to detect a protein on a gel via fluorescent reaction product [2]
1 | Cc1cc(=O)oc2c(C)c3c(cc12)CC([CH2][Hg][I])O3 (centres unmarked) [Compound P1, iodomercurio-H2DMP] | change in the ultraviolet absorbance spectra indicative of formation of a new reaction product was observed | 
2 | CC(=O)[O][Hg][CH2]C1Cc2cc3c(C)c(C#N)c(=O)oc3c(C)c2O1 (centres unmarked) [Compound P6, 3-cyano-acetylmercurio-H2DMP] |  | demonstrated
